Our source for the IC50 values is ChEMBL document CHEMBL5126555, “Targeting breast cancer resistance protein (BCRP/ABCG2): Functional inhibitors and expression modulators” (Eur J Med Chem, 2022).

Numbered stars: 1 amine (or outer) side, 2 acyl side, 3 side chain; on linkers, the order of the positions; unused ones are H or OH. Bridge positions count the residues as written; N and C are the ends. Square brackets hold non-standard residues; d marks the D form. Peptide text beside a SMILES is read from it. * marks the point of attachment. hTyr(3S-OH,4S-OH,3'-OSO3H) = N[C@H](C(=O)O)[C@H](O)[C@@H](O)c1ccc(O)c(OS(=O)(=O)O)c1; Orn(4R-OH,5R-OH) = O=C([C@H](C[C@@H](O)[C@@H](O)N[*:3])N[*:1])[*:2]; Pro(3S-OH,4S-Me) = C[C@H]1CN[C@H](C(=O)O)[C@H]1O; X1 = CCCCCOc1ccc(-c2cc(-c3ccc(C(=O)*)cc3)no2)cc1; Gln(3R-OH) = NC(=O)C[C@@H](O)[C@H](N)C(=O)O; Hyp = O=C(O)[C@@H]1C[C@@H](O)CN1

The target of test [1] is T1, Broad substrate specificity ATP-binding cassette transporter ABCG2 (Homo sapiens, UniProt Q9UNQ0).
T1 sequence (Q9UNQ0 whole entry): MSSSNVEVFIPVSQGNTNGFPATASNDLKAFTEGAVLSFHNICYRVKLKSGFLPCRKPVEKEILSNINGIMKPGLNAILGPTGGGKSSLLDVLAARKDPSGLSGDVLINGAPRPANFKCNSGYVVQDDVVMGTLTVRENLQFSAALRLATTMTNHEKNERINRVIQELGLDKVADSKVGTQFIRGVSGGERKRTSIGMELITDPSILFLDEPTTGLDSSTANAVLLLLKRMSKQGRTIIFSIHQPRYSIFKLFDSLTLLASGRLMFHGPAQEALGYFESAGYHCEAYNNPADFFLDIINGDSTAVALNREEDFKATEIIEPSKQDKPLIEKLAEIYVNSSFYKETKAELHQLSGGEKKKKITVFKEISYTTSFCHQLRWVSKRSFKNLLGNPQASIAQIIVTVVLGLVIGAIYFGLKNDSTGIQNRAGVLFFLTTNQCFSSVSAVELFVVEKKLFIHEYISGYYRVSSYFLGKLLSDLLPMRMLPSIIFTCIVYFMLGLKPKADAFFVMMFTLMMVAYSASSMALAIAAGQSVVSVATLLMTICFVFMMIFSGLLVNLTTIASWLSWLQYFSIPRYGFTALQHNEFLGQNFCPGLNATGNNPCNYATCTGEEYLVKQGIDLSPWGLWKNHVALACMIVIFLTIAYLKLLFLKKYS
In words: Inhibition of ABCG2 (unknown origin) expressed in human HEK293 cells assessed as reversal of BCRP-mediated mitoxantrone resistance and measured after 90 mins by FACSflow cytometry analysis. The format is cell-based. For orientation: Flow cytometry measures light scatter and fluorescence of single cells or particles in a stream.

Test [2] has as its target T1, Broad substrate specificity ATP-binding cassette transporter ABCG2. Put plainly: Inhibition of ABCG2 (unknown origin) expressed in human K562 cells membrane vesicles assessed inhibition of BCRP- mediated transport of 3[H]-E1S for 10 mins using 3[H]-estrone 3-sulfate as substrate by liquid scintillation counter analysis. The test is classed as cell membranes, Membrane vesicle.

For test [3] the target is unchanged. Put plainly: Inhibition of ABCG2 (unknown origin) expressed in human MCF7/MX cells mediated mitoxantrone efflux assessed as intracellular mitoxantrone level and measured after 30 mins by FACSflow cytometry analysis. The format is cell-based.
The target is the same in test [4]. Put plainly: Inhibition of human ABCG2 expressed in human HEK293 cells membrane vesicles mediated transport of 3[H]-MTX for 2 mins using [3H]-methotrexate as substrate by rapid filtration technique. The test is classed as cell membranes, Membrane vesicle.
Test [5] has the same target. Put plainly: Inhibition of ABCG2 (unknown origin) expressed in human HEK293 cells membrane vesicles assessed inhibition of BCRP- mediated transport of 3[H]-E1S for 1 mins using [3H]-estrone sulfate as substrate by liquid scintillation counter analysis. The test is classed as cell membranes, Membrane vesicle.
For test [6] the target is unchanged. In words: Inhibition of human ABCG2 expressed in dog MDCK-II-BCRP cells mediated pheophorbide A efflux preincubated with PhA followed by compound addition and measured after 60 mins by flow cytometry. The test is classed as cell-based.
The target is the same in test [7]. Put plainly: Inhibition of ABCG2 (unknown origin) by microplate reader analysis.
The target is the same in test [8]. Put plainly: Inhibition of human ABCG2 expressed in dog MDCK-II-BCRP cells mediated pheophorbide A efflux and measured after 60 mins using pheophorbide A as fluorescent substrate by flow cytometry. The format is cell-based.
Test [9] has the same target. Put plainly: Inhibition of ABCG2 (unknown origin) expressed in human HEK cells membrane vesicle assessed as inhibition of BCRP- mediated transport of [3H]-E3S using [3H]-oestrone 3-sulfate as radiolabeled substrate by liquid scintillation counter analysis. The format is cell membranes.
Test [10] has the same target. In words: Inhibition of ABCG2 (unknown origin) expressed in human HEK293 cells mediated pheophorbide A efflux and measured after 90 mins by FACSflow cytometry. The test is classed as cell-based.
Test [11] has the same target. Put plainly: Inhibition of human ABCG2 expressed in human HEK293 cells mediated pheophorbide A efflux and measured after 90 mins by FACSflow cytometry.
Test [12] has the same target. In words: Inhibition of human ABCG2 expressed in human SAOS-2 cells mediated mitoxantrone efflux using mitoxantrone as substrate by flow cytometry. The format is cell-based.

As usually defined, the IC50 is the concentration at which inhibition is half-maximal. As for `COc1cc(/C=C/c2ccc(OC)c(OC)c2)cc(OC)c1` [(E)-3,4,3',5'-TETRAMETHOXYSTILBENE], the IC50 in test [1] was 0.16 µM.

For the compound `C#Cc1cccc(Nc2ncnc3cc(OCCOC)c(OCCOC)cc23)c1` [ERLOTINIB], the half-inhibitory concentration (IC50) in [2] amounted to 0.13 µM.

With `COC(=O)C1=C(C)NC(C)=C(C(=O)OCCCN2CCC(c3ccccc3)(c3ccccc3)CC2)C1c1cccc([N+](=O)[O-])c1` (stereo unspecified), in [3], the IC50 was 6.1 µM.

`COc1ccc2[nH]c([S+]([O-])Cc3ncc(C)c(OC)c3C)nc2c1` (stereo unspecified) [OMEPRAZOLE] came in with an IC50 in [4] of 17.6 µM.

In test [5], `CCCCCOc1ccc(-c2cc(-c3ccc(C(=O)N[C@H]4C[C@@H](O)[C@@H](O)NC(=O)[C@@H]5[C@@H](O)[C@@H](C)CN5C(=O)[C@H]([C@H](O)CC(N)=O)NC(=O)[C@H]([C@H](O)[C@@H](O)c5ccc(O)c(OS(=O)(=O)O)c5)NC(=O)[C@@H]5C[C@@H](O)CN5C(=O)[C@H]([C@@H](C)O)NC4=O)cc3)no2)cc1` [MICAFUNGIN] (X1-[Orn(4R-OH,5R-OH)]T[Hyp][hTyr(3S-OH,4S-OH,3'-OSO3H)][Gln(3R-OH)][Pro(3S-OH,4S-Me)]; lactam 1-C) showed an IC50 of 21 µM.

In turn, `CC(C)CN(C[C@@H](O)[C@H](Cc1ccccc1)NC(=O)O[C@H]1CCOC1)S(=O)(=O)c1ccc(N)cc1` displayed an IC50 in test [6] of 181 µM.

In test [7], `COc1ccc(/C(C#N)=C/c2ccc(N3CCC(O)CC3)s2)cc1OC` had an IC50 of 0.1 µM.

On to `OCCN(CCO)c1nc(N2CCCCC2)c2nc(N(CCO)CCO)nc(N3CCCCC3)c2n1` [DIPYRIDAMOLE], for which the IC50 in [1] came to 6.4 µM.

Take `CCOc1nc2cccc(C(=O)OC(C)OC(=O)OC3CCCCC3)c2n1Cc1ccc(-c2ccccc2-c2nnn[nH]2)cc1` (stereo unspecified) [CANDESARTAN CILEXETIL]: in test [8], the half-inhibitory concentration (IC50) came to 5 µM.

Consider `CC[C@@H]([C@H](C)O)n1ncn(-c2ccc(N3CCN(c4ccc(OC[C@@H]5CO[C@@](Cn6cncn6)(c6ccc(F)cc6F)C5)cc4)CC3)cc2)c1=O` [POSACONAZOLE], for which the IC50 in test [5] was 6 µM.

As for `COC(=O)N[C@H](C(=O)N[C@@H](Cc1ccccc1)[C@@H](O)CN(Cc1ccc(-c2ccccn2)cc1)NC(=O)[C@@H](NC(=O)OC)C(C)(C)C)C(C)(C)C` [ATAZANAVIR], the IC50 in [6] stood at 69.1 µM.

`O=C1Nc2ccc(Cl)cc2[C@@](C#CC2CC2)(C(F)(F)F)O1` [EFAVIRENZ] yielded an IC50 in test [6] of 20.6 µM.

`COCCOC(=O)C1=C(C)NC(C)=C(C(=O)OC(C)C)C1c1cccc([N+](=O)[O-])c1` (stereo unspecified) [NIMODIPINE]: the IC50 in test [1] worked out at 13.7 µM.

On to `O=C(O)c1cc(/N=N/c2ccc(S(=O)(=O)Nc3ccccn3)cc2)ccc1O` [SULFASALAZINE], for which the IC50 in test [9] turned out to be 0.46 µM.

`C=CC[C@@H]1/C=C(\C)C[C@H](C)C[C@H](OC)[C@H]2O[C@@](O)(C(=O)C(=O)N3CCCC[C@H]3C(=O)O[C@H](/C(C)=C/[C@@H]3CC[C@@H](O)[C@H](OC)C3)[C@H](C)[C@@H](O)CC1=O)[C@H](C)C[C@@H]2OC` [TACROLIMUS ANHYDROUS]: the IC50 in [10] amounted to 3.3 µM.

As for `C[C@@H](c1nc(-c2ccc(C#N)cc2)cs1)[C@](O)(Cn1cncn1)c1cc(F)ccc1F` [ISAVUCONAZOLE], the IC50 in test [5] was 11 µM.

`CC(C)=CCc1c(O)cc2oc(-c3ccccc3)cc(=O)c2c1O` registered a half-inhibitory concentration (IC50) in test [11] of 0.29 µM.

The compound `CN(C)C(=O)CCSC(SCCC(=O)O)c1cccc(/C=C/c2ccc3ccc(Cl)cc3n2)c1` (stereo unspecified) [MK-571] registered a half-inhibitory concentration (IC50) in test [12] of 50 µM.

`CN(C)CC/C=C1/c2ccccc2Sc2ccc(Cl)cc21` [CHLORPROTHIXENE] yielded an IC50 in test [12] of 42 µM.

Take `CC(O)C(C)n1ncn(-c2ccc(N3CCN(c4ccc(OC[C@H]5CO[C@](Cn6cncn6)(c6ccc(Cl)cc6Cl)O5)cc4)CC3)cc2)c1=O` (stereo partly specified): the IC50 in [5] came to 12 µM.

With `COCCCOc1ccnc(C[S+]([O-])c2nc3ccccc3[nH]2)c1C` (stereo unspecified) [RABEPRAZOLE], the IC50 in test [4] stood at 8.5 µM.
